# Reference: patent publication US11098034B2, “Pyrazolyl substituted carbonic acid derivatives as modulators of the prostacyclin (PGI2) receptor useful for the treatment of disorders related thereto” (Arena Pharmaceuticals, Inc., priority 2008, dated 2021)
# Test system: MCT-induced pulmonary arterial hypertension in rat
# Assay: Rat monocrotaline model of pulmonary arterial hypertension
# Format: in vivo
# Conditions: male Wistar rats, MCT 60 mg/kg s.c.; test compound 30 mg/kg oral gavage twice a day for 21 days; heart weights Day 22
# Experimental: Animals: Male Wistar rats (100-150 g at start of study) (Charles River Laboratories, Wilmington, Mass.) were housed two per cage and maintained in a humidity—(40-60%) and temperature—(68-72° F.) controlled facility on a 12 hr:12 hr light/dark cycle (lights on at 6:30 am) with free access to food (Harlan Teklad, Orange Calif., Rodent Diet 8604) and water. Rats were allowed one week of habituation to the animal facility before testing.
# Rat monocrotaline model: The rat monocrotaline (MCT) model is a standard and well-accepted model of pulmonary arterial hypertension. MCT induces acute pulmonary endothelial damage associated with pulmonary vascular inflammation. […]
# Rats were randomly given a single subcutaneous injection of either 60 mg/kg MCT (Sigma, St. Louis, Mo.) or 0.9% saline (sham) and assigned to receive oral administration of 20% hydroxypropyl beta-cyclodextrin (vehicle) or test compound (30 mg/kg; FIGS. 1 and 2). […] Heart chamber weights were measured on Day 22. […] The ratio of right ventricular (RV) weight to left ventricle plus septum (LV+S) weight (this ratio is indicated as “RV/(LV+S)” in FIGS. 1 and 2) was calculated as an index of the hypertrophic response to the induced pulmonary arterial hypertension and, as such, as an index of a test compound's therapeutic efficacy for pulmonary arterial hypertension.
row,SMILES,"hypertrophic response to the induced pulmonary arterial hypertension, RV/(LV+S)"
1,"COc1cccc(-c2c(-c3ccccc3)nn(C[C@H]3CC[C@@H](COCC(=O)O)CC3)c2SC)c1 [Compound 31, 2-(((1s,4s)-4-((4-(3-Methoxyphenyl)-5-(methylthio)-3-phenyl-1H-pyrazol-1-yl)methyl)cyclohexyl)methoxy)acetic Acid]",inhibited the hypertrophic response
2,"COc1cccc(-c2c(-c3ccccc3)nn(C[C@H]3CC[C@@H](COCC(=O)O)CC3)c2C)c1 [Compound 14, 2-(((1s,4s)-4-((4-(3-Methoxyphenyl)-5-methyl-3-phenyl-1H-pyrazol-1-yl)methyl)cyclohexyl)methoxy)acetic Acid]",inhibited the hypertrophic response
